The results in this text go back to publication PMC6770071, “XIAP as a Target of New Small Organic Natural Molecules Inducing Human Cancer Cell Death” (Cancers, 2019).

For assay [1], the system named is PC-3 cells. Kind of assay: MTT cell viability assay, PC-3 prostate cancer cells. Format: cell-based. Conditions: Homo sapiens, 24 h. As to the method:
(§1) Human U373 glioma, MCF7 breast cancer, A549 lung cancer and PC-3 prostate cancer cells were grown in Dulbecco’s Modified Eagle Medium (DMEM), supplemented with 10% foetal bovine serum, 2 mM glutamine, 100 U/mL penicillin/streptomycin, at 37 °C in a humidified atmosphere containing 5% CO2 (logarithmic growth phase, routine passages every 3 days). The human breast epithelial cell line MCF10 was cultured in DMEM/F12 Ham’s Mixture supplemented with 5% horse serum, epithelial growth factor 20 ng/mL, insulin 10 μg/mL, hydrocortisone 0.5 mg/mL, cholera toxin 100 ng/mL, and 100 U/mL penicillin/streptomycin. […]
(§2) U373, MCF7, A549, PC-3, HUVEC, and MCF10 cell viability was determined by MTT assay using published protocols. MTT absorbance was quantified spectrophotometrically using a Glomax Multi Detection System microplate reader (Promega, Milano, Italy).
(§3) Statistical significance of raw data between the groups in each experiment was evaluated using unpaired Student’s t-test (single comparisons) or one-way ANOVA followed by the Newman-Keuls post-test (multiple comparisons). The IC50 and Emax concentration were determined by non-linear regression curve analysis of the concentration-effect responses. […] The results were expressed as means ± standard error of mean (SEM) of the indicated n values.
(Formazan colour is commonly taken as a measure of viable cells.)

For assay [2], the system named is MCF7 cells. Kind of assay: MTT assay and cleaved-caspase 7 western blot in XIAP siRNA-transfected MCF7 cells treated with compounds. Format: cell-based, human. Conditions: MCF7, XIAP siRNA 50 nM 24 h; for toxicity (MTT absorbance) after XIAP downregulation: then 6 h, gibbilimbol B/eriopodol A 30 μg/mL, erioquinol 10 μg/mL. As to the method: as §2
(§4) Using published protocols, MCF7 and MCF10 cells were homogenised in RIPA lysis buffer, supplemented with a cocktail of protease inhibitors (cOmplete; Roche Diagnostics, Milano, Italy). Equal amounts of proteins were separated by 4–20% SDS-polyacrylamide gel electrophoresis (Criterion TGX Stain-free precast gels and Criterion Cell system; Bio-Rad, Hercules, CA, USA) and transferred onto nitrocellulose membrane using a Bio-Rad Trans-Blot Turbo System. When indicated, the membranes were probed using the rabbit monoclonal anti-cleaved caspase 7 and anti-XIAP (Cell Signaling Technology) primary antibodies. After the incubation with the appropriate horseradish-peroxidase-conjugated secondary antibody (Cell Signaling Technology), bands were visualised using the Clarity Western ECL substrate with a ChemiDoc MP imaging system (Bio-Rad). To monitor for potential artefacts in loading and transfer among samples in different lanes, the blots were routinely treated with the Restore Western Blot Stripping Buffer (ThermoFisher Scientific) and re-probed with the goat anti-Lactate dehydrogenase (LDH)-A (Santa Cruz Biotechnology) and the mouse anti-vinculin primary antibodies. The stain-free gel was used as loading control as well. When appropriated, bands were quantified for densitometry using the Bio-Rad Image Lab software.
Gene silencing of XIAP in MCF7 cells was performed as previously published. Briefly, according to the manufacturer’s protocol, iBONI siRNA Pool (Riboxx, Radebeul, Germany) targeting human XIAP were mixed to Lipofectamine RNAiMax transfection reagent (Life Technologies). iBONI siRNA Pool negative control (Riboxx) (scrambled targeting siRNAs) was also used. The mix was added to cultured MCF7 cells at a siRNA concentration of 50 nM for 24 h.

The test system of assay [3] is MCF7 cells. Kind of assay: Confocal co-localisation of cytochrome c with COX IV, MCF7 cells. Conditions: MCF7, 3 h; gibbilimbol B/eriopodol A 30 µg/mL, erioquinol 10 µg/mL. Format: cell-based, human. How it is done:
(§5) Using published protocols, MCF7 or U373 cells cultured in 120-mm coverslips were fixed in 4% paraformaldehyde in 0.1 M PB, pH 7.4, for 10 min. Cells were pre-incubated for 1 h min with 5% of normal goat serum (Life Technologies, Monza, Italy) in 0.1 M PB (pH 7.4) containing 0.1% Triton X-100, before overnight incubation with the rabbit monoclonal anti-cleaved caspase 7 (Cell Signaling Technology, Danvers, MA, USA). In double-label immunofluorescence experiments, the mouse monoclonal anti-cytochrome c primary antibody (Cell Signaling Technology) was used in conjunction with the rabbit monoclonal primary antibody directed to COX IV (Cell Signaling Technology). For fluorescence detection, coverslips were stained with the appropriate Alexa Fluor secondary antibodies (Life Technologies) and mounted on glass slides in a ProLong Gold Antifade Mountant (Life Technologies). DAPI and/or fluorescein phalloidin (cytoskeleton detection) staining was also used. Cells were analysed with a DMI4000 B automated inverted microscope equipped with a DCF310 digital camera (Leica Microsystems, Wetzlar, Germany). When indicated, confocal imaging was performed with a TCS SP8 System (Leica Microsystems). Image acquisitions were controlled by the Leica Application Suite X.

Assay [4] has as its system MCF7 cells. Kind of assay: Bright field microscopy and DAPI staining of cell morphology. Format: cell-based, human. Conditions: MCF7, 6 h; for cell morphology, bright field microscopy: increasing concentrations; for nuclei, DAPI staining: gibbilimbol B/eriopodol A 30 µg/mL, erioquinol 10 µg/mL. How it is done:
as §5

The test system of assay [5] is U373 cells. The experiment in a line: Confocal co-localisation of cytochrome c with COX IV, U373 cells. Format: cell-based, human. The following applies: U373, 3 h; gibbilimbol B/eriopodol A 30 µg/mL, erioquinol 10 µg/mL. As to the method: as §5
In assay [6] the test system is XIAP. The experiment in a line: XIAP expression by real-time PCR and western blot in MCF7 cells. Format: cell-based, human. The following applies: MCF7, increasing times, gibbilimbol B/eriopodol A 30 μg/mL, erioquinol 10 µg/mL; for XIAP mRNA levels: real-time PCR; for XIAP protein levels: western blot.
Source text: as §4
The analysis of mRNA expression was performed as previously described. Briefly, total RNA from MCF7 cells was extracted with the High Pure RNA Isolation Kit (Roche Applied Science, Mannheim, Germany), according to the manufacturer’s protocol. First-strand cDNA was generated from 1 μg of total RNA using iScript Reverse Transcription Supermix (Bio-Rad). Primer pairs (Eurofins Genomics, Milano, Italy) for XIAP (NM_001167; forward ACCGTGCGGTGCTTTAGTT, reverse […]) and β-actin (NM_001101; forward […], reverse CACCTTCTACAAT GAGCTGCGTGTG) were designed to hybridise to unique regions of the appropriate gene sequence. PCR was performed using SsoAdvanced Universal SYBR Green Supermix and the CFX96 Touch Real-Time PCR Detection System (Bio-Rad). The fold change was determined relative to the selected control sample after normalising to β-actin (internal standard) by the formula 2^−ΔΔCT.

Assay [7] deals with human umbilical vein endothelial cells (HUVEC). The experiment in a line: MTT cell viability assay, HUVEC. Format: cell-based. The following applies: 24 h. As to the method: as §1, §2, §3
Assay [8] has as its system caspase 7. Kind of assay: Cleaved-caspase 7 immunofluorescence in U373 cells. Format: cell-based, human. The following applies: U373, 6 h; gibbilimbol B/eriopodol A 30 µg/mL, erioquinol 10 µg/mL. How it is done:
as §5

The IC50 is the concentration that gives 50% inhibition. A high value points to lower potency.

≈ marks a conversion by molar mass, not a printed value.

Regarding `CCCCCC/C=C\CCC1(O)C=CC(=O)C=C1` [Erioquinol, (Z)-4-(dec-3′-enyl)-4-hydroxycyclohexa-2,5-dien-1-one], in assay [1], it took 2.21 µg/mL (≈ 8.9 µM) to reach half-maximal inhibition (IC50). For the same compound, the “toxicity (MTT absorbance) after XIAP downregulation” value in assay [2] is given as “significantly enhanced the toxicity”. In addition, the “subcellular location of cytochrome c” value in assay [3] is on record as “release of cytochrome c”. Also, in assay [4], the “cell morphology, bright field microscopy” value is “translucent cytoplasm and no overall nuclei condensation”; the “nuclei, DAPI staining” value is “appearence of multinucleated cells”. Besides, in assay [5], the “subcellular location of cytochrome c” value is on record as “release of cytochrome c”. In assay [6], the “XIAP mRNA levels” value is reported as “did not significantly modify” and the XIAP protein levels result is “did not significantly modify”. This compound also showed an IC50 in assay [7] of 0.36 µg/mL (≈ 1.45 µM).
For `CCCCCC/C=C/CCc1ccc(O)cc1` [Gibbilimbol B, (E)-4-(dec-3′-enyl)phenol], in assay [2] (then 30 μg/mL for 6 h), the “caspase 7 activity after XIAP silencing” value is “robustly increased”. The “toxicity (MTT absorbance) after XIAP downregulation” value in assay [2] is recorded as “significantly enhanced the toxicity”. The “subcellular location of cytochrome c” value in assay [3] is listed as “release of cytochrome c”. Besides, in assay [8], the “activation of caspase 7” value is “activation of caspase 7”. Also, in assay [4], the “cell morphology, bright field microscopy” value is recorded as “morphological hallmarks of apoptosis” and the “nuclei, DAPI staining” value is reported as “nuclei of cells undergoing apoptosis”. The “subcellular location of cytochrome c” value in assay [5] is given as “release of cytochrome c”. Moreover, in assay [6], the “XIAP mRNA levels” value is on record as “did not significantly modify” and the XIAP protein levels entry is “did not significantly modify”. In assay [7], this compound registered a concentration for half-maximal inhibition (IC50) of 11.5 µg/mL (≈ 49.4 µM).
